pIC50: −log10 of the molar value. Where only a bound is given, the exact number is not on record here.

The source of these data is ChEMBL document CHEMBL1131963, “Novel benzo-fused lactam scaffolds as factor Xa inhibitors” (Bioorg Med Chem Lett, 1999).

Assay [1] deals with T1, Coagulation factor X (Homo sapiens, UniProt P00742). Nature of the assay: In vitro inhibitory activity against human enzyme Coagulation factor X.
A further assay addresses Plasminogen (Homo sapiens, UniProt P00747). Nature of the assay: In vitro inhibitory activity against human enzyme plasmin.
Assay [2] deals with T1, Coagulation factor X. Nature of the assay: In vitro inhibitory activity against human prothrombinase.
For assay [3], the target named is T2, Prothrombin (Homo sapiens, UniProt P00734). The assay can be described thus: In vitro inhibitory activity against human enzyme thrombin.
A short description of assay [4]: Ratio against factor Xa to prothrombinase.
Assay [5] concerns the target T3, Serine protease 1 (Homo sapiens, UniProt P07477). Nature of the assay: In vitro evaluation of inhibition of cleavage of the chromogenic substrate by human enzyme trypsin.
The target of assay [6] is T3, Serine protease 1. The assay can be described thus: In vitro inhibitory activity against human enzyme trypsin.
Assay [7] addresses T1, Coagulation factor X. Nature of the assay: In vitro inhibitory activity against prothrombinase.
In assay [8] the target is T2, Prothrombin. Nature of the assay: In vitro inhibitory activity against by human enzyme thrombin.

T1 sequence (P00742 41-179 limits assumed): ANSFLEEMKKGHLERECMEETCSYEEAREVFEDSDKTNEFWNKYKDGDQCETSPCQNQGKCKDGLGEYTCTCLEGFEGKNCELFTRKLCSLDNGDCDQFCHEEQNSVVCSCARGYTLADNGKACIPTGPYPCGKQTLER
T1 sequence (P00742 235-488 limits assumed): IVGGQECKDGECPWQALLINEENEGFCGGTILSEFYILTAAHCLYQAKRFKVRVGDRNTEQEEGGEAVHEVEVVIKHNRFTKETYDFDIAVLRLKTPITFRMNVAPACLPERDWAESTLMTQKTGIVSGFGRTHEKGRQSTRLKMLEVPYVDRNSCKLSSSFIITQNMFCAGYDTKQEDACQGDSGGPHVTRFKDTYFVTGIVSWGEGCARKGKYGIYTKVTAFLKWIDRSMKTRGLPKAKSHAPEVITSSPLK
T3 sequence (P07477 whole entry): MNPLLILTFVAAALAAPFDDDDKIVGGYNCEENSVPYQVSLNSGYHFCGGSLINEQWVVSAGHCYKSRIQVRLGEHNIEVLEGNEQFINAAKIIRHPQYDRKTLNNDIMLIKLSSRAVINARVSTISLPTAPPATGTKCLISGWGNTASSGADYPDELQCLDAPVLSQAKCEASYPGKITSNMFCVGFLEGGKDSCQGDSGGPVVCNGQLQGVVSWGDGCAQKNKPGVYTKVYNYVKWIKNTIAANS
Plasminogen, sequence (P00747 97-580 limits assumed): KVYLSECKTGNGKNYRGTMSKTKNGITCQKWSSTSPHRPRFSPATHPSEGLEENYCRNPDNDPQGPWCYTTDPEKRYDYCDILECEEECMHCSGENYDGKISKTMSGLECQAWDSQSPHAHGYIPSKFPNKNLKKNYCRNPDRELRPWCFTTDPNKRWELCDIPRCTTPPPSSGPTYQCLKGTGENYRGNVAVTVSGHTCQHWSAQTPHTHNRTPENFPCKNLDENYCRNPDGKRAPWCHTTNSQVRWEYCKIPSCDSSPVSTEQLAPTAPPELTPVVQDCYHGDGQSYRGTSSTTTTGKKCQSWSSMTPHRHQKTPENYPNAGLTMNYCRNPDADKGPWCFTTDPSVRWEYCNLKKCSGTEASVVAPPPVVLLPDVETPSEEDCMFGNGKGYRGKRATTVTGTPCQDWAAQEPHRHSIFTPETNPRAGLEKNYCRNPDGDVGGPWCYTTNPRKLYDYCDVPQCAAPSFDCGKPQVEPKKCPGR
Plasminogen, sequence (P00747 581-810 limits assumed): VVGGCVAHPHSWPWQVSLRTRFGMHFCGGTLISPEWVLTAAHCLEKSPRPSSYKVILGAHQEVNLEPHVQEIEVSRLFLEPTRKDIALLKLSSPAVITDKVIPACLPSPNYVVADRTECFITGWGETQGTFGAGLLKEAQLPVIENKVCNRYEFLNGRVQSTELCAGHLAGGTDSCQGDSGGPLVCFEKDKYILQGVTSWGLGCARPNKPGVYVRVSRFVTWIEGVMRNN

With `COc1ccc2c(c1)N(CC(=O)N[C@H]1CCCN(C(=N)N)C1O)C(=O)[C@@H](NS(=O)(=O)Cc1ccccc1)CC2` (some centres not stated), the pIC50 on Coagulation factor X [1] was 7.54; against Plasminogen, below 5.60; against Coagulation factor X [2], 7.19; at Prothrombin [3] it was below 5.60; on Serine protease 1 [5] it was 7.40. In addition, the Ratio in assay [4] was 2.2.

Turning to `N=C(N)N1CCC[C@H](NC(=O)CN2C(=O)[C@H](NS(=O)(=O)Cc3ccccc3)CCc3ccccc32)C1O` (some centres not stated), the pIC50 at Coagulation factor X [1] is 7.31; against Plasminogen, below 5.60; on Prothrombin [3] it was 6.72; at Serine protease 1 [6], 6.87.

For the compound `N=C(N)N1CCC[C@H](NC(=O)CN2C(=O)C(NS(=O)(=O)Cc3ccccc3)Cc3ccccc32)C1O` (some centres not stated), the negative logarithm of the IC50 (pIC50) against Coagulation factor X [1] is below 5.60; at Plasminogen, below 5.60; against Prothrombin [3], 7.75; against Serine protease 1 [6] it was 6.54.

`N=C(N)N1CCC[C@H](NC(=O)CN2C(=O)[C@@H](NS(=O)(=O)Cc3ccccc3)CCc3ccccc32)C1O` (some centres not stated): the pIC50 against Coagulation factor X [1] is 8.14; against Plasminogen it was below 5.60; against Coagulation factor X [2] it was 7.77; against Prothrombin [3], 6.75; against Serine protease 1 [6], 7.59. Besides, in [4], the Ratio was found to be 2.3.

Regarding `COc1ccc2c(c1)CC[C@H](NS(=O)(=O)CC1CCCCC1)C(=O)N2CC(=O)N[C@H]1CCCN(C(=N)N)C1O` (some centres not stated), the negative-log IC50 (pIC50) is 8.72 against Coagulation factor X [1]; below 5.60 on Plasminogen; 8.00 at Coagulation factor X [7]; 6.08 against Prothrombin [3]; 8.82 at Serine protease 1 [6]. The Ratio in assay [4] came to 5.2.

In the case of `COc1ccc2c(c1)CC[C@H](NS(=O)(=O)c1ccc3ccccc3c1)C(=O)N2CC(=O)N[C@H]1CCCN(C(=N)N)C1O` (some centres not stated), the pIC50 against Coagulation factor X [1] is 8.44; at Plasminogen it was below 5.60; against Coagulation factor X [2], 7.72; on Prothrombin [8], 6.55; on Serine protease 1 [5] it was 7.57. Further, in assay [4], the Ratio is 5.3.

For the compound `N=C(N)N1CCC[C@H](NC(=O)CN2CCCC[C@H](NS(=O)(=O)Cc3ccccc3)C2=O)C1O` (some centres not stated), the values for the pIC50 on Coagulation factor X [1], at Plasminogen and on Serine protease 1 [6] were 7.69, below 5.60 and 7.12, respectively.

In the case of `COc1ccc2c(c1)CC[C@H](NS(=O)(=O)Cc1ccccc1)C(=O)N2CC(=O)N[C@H]1CCCN(C(=N)N)C1O` (some centres not stated), the pIC50 is 8.14 against Coagulation factor X [1]; below 5.60 against Plasminogen; 7.46 against Coagulation factor X [2]; below 5.60 against Prothrombin [3]; 6.96 against Serine protease 1 [5]. In assay [4], the Ratio was found to be 4.8.

In the case of `COc1cccc2c1CC[C@H](NS(=O)(=O)Cc1ccccc1)C(=O)N2CC(=O)N[C@H]1CCCN(C(=N)N)C1O` (some centres not stated), the pIC50 was 8.07 against Coagulation factor X [1]; below 5.60 at Plasminogen; 7.57 against Coagulation factor X [2]; 6.63 against Prothrombin [3]; 7.11 against Serine protease 1 [5]. The Ratio in assay [4] amounted to 3.1.

As a reminder, the pIC50 is −log10 of the IC50, conventionally taken in molar units. A low value points to a high IC50.
